In patent US11111463B2, “Solid cleansing compositions with taurine and methods thereof” (Colgate-Palmolive Company, priority 2016, dated 2021):

Assay: MTT colorimetric assay, dose response, cell viability
Type: cell-based
Conditions: human, HaCat cells, untreated = 100
Protocol: An MTT colorimetric assay (HaCat Cells) dose response experiment was conducted to analyze cell viability, or the percentage of cells present after treatment. Particularly, the MTT colorimetric assay was conducted to determine cell viability of the anhydrous 2:1 urea to taurine ionic liquid (2) of Example 1 in comparison to taurine. The HaCat Cells were 60-70% confluent, and a PBS buffer was used for serial volumetric dilutions. The results of the MTT colorimetric assay are summarized in Table 6, and highlight the effectiveness of the ionic liquid form. Cell viability greater than 100% indicates cell growth or proliferation, and cell viability less than 100% indicates cell death.

## NCCS(=O)(=O)O [Taurine, 2-aminoethanesulfonic acid]
Concentration of taurine 0.00001 w/w %
  viability at 1e-05 w/w %: 137%
Concentration of taurine 0.00010 w/w %
  viability at 0.0001 w/w %: 120%
Concentration of taurine 0.00100 w/w %
  viability at 0.001 w/w %: 141%
Concentration of taurine 0.01000 w/w %
  viability at 0.01 w/w %: 147%
Concentration of taurine 0.10000 w/w %
  viability at 0.1 w/w %: 99%
